Assay results published in patent US20130065897A1, “COMPOUNDS, PREPARATION AND USES THEREOF” (PETER MACCALLUM CANCER INSTITUTE, priority 2009, published 2013).
Where two headings read alike, the source gives them in different places.

Tests used:
Format in all cases: cell-based
recombinant perforin = recombinant perforin (UniProt P10820)
Protocol: Inhibition of Perforin-Mediated Lysis of Jurkat Cells
The ability of the compounds to inhibit the lysis of nucleated (Jurkat T lymphoma) cells in the presence of 0.1% BSA, as measured by release of ^51Cr was measured. Jurkat target cells were labelled by incubation in medium with 100 μCi ^51Cr for one hour. The cells were then washed three times to remove unincorporated isotope and re-suspended at 1×10^5 cells per mL in RPMI buffer supplemented with 0.1% BSA. […] The supernatant was collected and assessed for its radioactive content on a gamma counter (Wallac Wizard 1470 automatic gamma counter). Each data point was performed in triplicate and an IC50 was calculated from the range of concentrations described to above.

[1] = test system: KHYG-1 NK cell-mediated lysis of K562 cells; test: Inhibition of KHYG-1 NK cell-mediated lysis of K562 cells (51Cr release); settings: K562 target cells, Effector:Target 2:1, 4 hours 37° C.
Protocol: Inhibition of KHYG-1 NK Cell-Mediated lysis of K562 Cells
KHYG-1 cells were washed and resuspended in RPMI+0.1% BSA at 4×10^5 cells/ml and 50 μl of KHYG-1 cells were dispensed to each well of a 96-well V-bottom, plate. Test compounds were added to KHYG-1 cells at various concentrations up to 20 μM and incubated at RT for 20 minutes. 1×10^6 K562 target cells were labelled with 75 μCi ^51Cr in 200 μl RPMI for 90 mins at 37° C., cells were washed as described above and resuspended in 5 ml RPMI+0.1% BSA. 50 μl of ^51Cr labelled K562 leukemia target cells were added to each well of the KHYG-1 plate (Effector:Target 2:1) and incubated at 37° C. for 4 hours. ^51Cr release was assayed using a Skatron Harvesting Press and radioactivity estimated on a Wallac Wizard 1470 Automatic Gamma counter (Turku, Finland). The percentage of specific cytotoxicity was calculated by the formula: […]
and expressed as the mean of triplicate assays +/−standard error of the mean.

KHYG-1 NK cells = test: Toxicity to KHYG-1 NK cells (trypan blue viability); settings: viable cells as percentage of total (% viability), 18 to 24 hours
Protocol: Toxicity to KHYG-1 NK Cells
KHYG-1 cells were washed and resuspended in RPMI+0.1% BSA at 4×10^5 cells/ml and 50 μl of KHYG-1 cells were dispensed to each well of a 96-well V-bottom plate. Test compounds were added to KHYG-1 cells at a concentration of 20 μM and incubated at RT for 20 minutes. 100 μL of RPMI 0.1% BSA was added and the cells were incubated for 4 hours at 37° C. then washed ×3 in RPMI+0.1% BSA. Cells were then resuspended in 200 μl of complete medium and incubated for 18 to 24 hours at 37° C. Trypan blue was added to each well and viable (clear) cells counted as a percentage of total (clear+blue) cell number (% viability).

[2] = read-out: Jurkat IC50; recombinant perforin pre-incubated 30 min with compound; 51Cr-labelled Jurkat cells, 0.1% BSA, 37° C. 4 hours
[3] = recombinant perforin pre-incubated 30 min with compound; 51Cr-labelled Jurkat cells, 0.1% BSA, 37° C. 4 hours; read-out: Jurkat IC50

recombinant perforin, sequence (P10820 whole entry): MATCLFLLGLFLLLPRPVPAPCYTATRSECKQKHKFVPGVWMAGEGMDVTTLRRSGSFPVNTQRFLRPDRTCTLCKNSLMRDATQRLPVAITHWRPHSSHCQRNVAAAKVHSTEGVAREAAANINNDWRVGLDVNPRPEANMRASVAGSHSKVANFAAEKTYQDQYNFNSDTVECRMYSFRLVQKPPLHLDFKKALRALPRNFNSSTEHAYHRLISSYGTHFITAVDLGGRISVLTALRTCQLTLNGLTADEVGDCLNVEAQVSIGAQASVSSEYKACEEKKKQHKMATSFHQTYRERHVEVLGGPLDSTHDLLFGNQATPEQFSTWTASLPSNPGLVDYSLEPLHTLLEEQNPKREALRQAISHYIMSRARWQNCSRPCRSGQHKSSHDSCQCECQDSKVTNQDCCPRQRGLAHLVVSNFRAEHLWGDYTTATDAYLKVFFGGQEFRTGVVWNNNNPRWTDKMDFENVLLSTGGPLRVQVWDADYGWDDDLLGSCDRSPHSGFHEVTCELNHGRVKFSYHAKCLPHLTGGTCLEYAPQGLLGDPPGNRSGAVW

| Compound | IC50 (recombinant perforin; [2]) [µM] | inhibition at 20 µM [1] [%] | percent viable KHYG-1 cells (trypan blue) at 20 μM (KHYG-1 NK cells) [%] | IC50 (recombinant perforin; [3]) [µM] | Inhibition of KHYG-1 at 20 μM [1] [%] |
| --- | --- | --- | --- | --- | --- |
| O=C1NC(=S)N/C1=C/c1ccc(-c2ccc3c(c2)COC3=O)s1 [Cmpd 2, (E,Z)-5-((5-(1-Oxo-1,3-dihydroisobenzofuran-5-yl)thiophen-2-yl)methylene)-2-thioxoimidazolidin-4-one] | 0.76 | 52 | 83 | – | – |
| O=C1NC(=S)N/C1=C/c1ccc(-c2ccc3c(c2)COC3=O)cn1 [Cmpd 7] | – | – | – | 2 | – |
| O=C1NC(=S)N/C1=C/c1ccc2cc(-c3ccc4c(c3)COC4=O)ccc2n1 [Cmpd 14, (E,Z)-5-((6-(1-Oxo-1,3-dihydroisobenzofuran-5-yl)quinolin-2-yl)methylene)-2-thioxoimidazolidin-4-one] | – | – | 81 | 0.47 | 56 |
| NC(=O)c1ccc(-c2ccc(/C=C3/NC(=S)NC3=O)s2)cc1 [Cmpd 16, (E,Z)-4-(5-((5-oxo-2-thioxoimidazolidin-4-ylidene)methyl)thiophen-2-yl)benzamide] | 1.56 | 80 | 52 | – | – |
| NC(=O)c1cccc(-c2ccc(/C=C3/NC(=S)NC3=O)s2)c1 [Cmpd 17, (E,Z)-3-(5-((5-Oxo-2-thioxoimidazolidin-4-ylidene)methyl)thiophen-2-yl)benzamide] | 0.79 | 35 | 100 | – | – |
| CC(=O)OCc1ccc(-c2ccc(/C=C3/NC(=S)NC3=O)s2)cc1 [Cmpd 18, (E,Z)-4-(5-((5-Oxo-2-thioxoimidazolidin-4-ylidene)methyl)thiophen-2-yl)benzyl acetate] | 3.04 | 98 | 100 | – | – |
| COC(=O)c1ccc(-c2ccc(/C=C3/NC(=S)NC3=O)s2)cc1 [Cmpd 19, (E,Z)-Methyl 4-(5-((5-oxo-2-thioxoimidazolidin-4-ylidene)methyl)thiophen-2-yl)benzoate] | 1.62 | 30 | 95 | – | – |
| CC(=O)c1ccc(-c2ccc(/C=C3/NC(=S)NC3=O)s2)cc1 [Cmpd 20, (E,Z)-5-((5-(4-Acetylphenyl)thiophen-2-yl)methylene)-2-thioxoimidazolidin-4-one] | 1.67 | 90 | 100 | – | – |
| COC(=O)c1ccc(-c2ccc(/C=C3/NC(=S)NC3=O)s2)cc1C [Cmpd 21, (E,Z)-Methyl 2-methyl-4-(5-((5-oxo-2-thioxoimidazolidin-4-ylidene)methyl)thiophen-2-yl)benzoate] | 3.03 | 92 | – | – | – |
| O=C1NC(=S)N/C1=C/c1ccc(-c2cccc(Cl)c2)s1 [Cmpd 23, (E,Z)-5-((5-(3-Chlorophenyl)thiophen-2-yl)methylene)-2-thioxoimidazolidin-4-one] | 7.19 | 92 | 55 | – | – |
| O=C1NC(=S)N/C1=C/c1ccc(-c2ccc(Cl)cc2)s1 [Cmpd 24, (E,Z)-5-((5-(4-Chlorophenyl)thiophen-2-yl)methylene)-2-thioxoimidazolidin-4-one] | 5.22 | 59 | 89 | – | – |
| O=C1NC(=S)N/C1=C/c1ccc(-c2ccncc2)s1 [Cmpd 25, (E,Z)-5-((5-(Pyridin-4-yl)thiophen-2-yl)methylene)-2-thioxoimidazolidin-4-one] | 10.1 | – | – | – | – |
| CSc1ccc(-c2ccc(/C=C3/NC(=S)NC3=O)s2)cc1 [Cmpd 27] | 1.15 | 43 | 83 | – | – |
| CS(=O)(=O)c1ccc(-c2ccc(/C=C3/NC(=S)NC3=O)s2)cc1 [Cmpd 28, (E,Z)-5-((5-(4-(Methylsulfonyl)phenyl)thiophen-2-yl)methylene)-2-thioxoimidazolidin-4-one] | 13.8 | – | – | – | – |
| O=C1NC(=S)N/C1=C/c1ccc(-c2ccc(F)cc2)s1 [Cmpd 29, (E,Z)-5-((5-(4-Fluorophenyl)thiophen-2-yl)methylene)-2-thioxoimidazolidin-4-one] | 6.69 | – | – | – | – |
| O=C1NC(=S)N/C1=C/c1ccc(-c2ccc(F)c(F)c2)s1 [Cmpd 30, (E,Z)-5-((5-(3,4-Difluorophenyl)thiophen-2-yl)methylene)-2-thioxoimidazolidin-4-one] | 4.59 | – | – | – | – |
| O=C1NC(=S)N/C1=C/c1ccc(-c2cccc(F)c2)s1 [Cmpd 31, (E,Z)-5-((5-(3-Fluorophenyl)thiophen-2-yl)methylene)-2-thioxoimidazolidin-4-one] | 10.8 | – | – | – | – |
| O=C1NC(=S)N/C1=C/c1ccc(-c2ccc(Br)cc2)s1 [Cmpd 32, (E,Z)-5-((5-(4-Bromophenyl)thiophen-2-yl)methylene)-2-thioxoimidazolidin-4-one] | 1.69 | 66 | 83 | – | – |
| CS(=O)(=O)Nc1ccc(-c2ccc(/C=C3/NC(=S)NC3=O)s2)cc1 [Cmpd 33, (E,Z)-N-(4-(5-((5-Oxo-2-thioxoimidazolidin-4-ylidene)methyl)thiophen-2-yl)phenyl)methanesulfonamide] | 7.7 | 32 | – | – | – |
| N#Cc1cccc(-c2ccc(/C=C3/NC(=S)NC3=O)s2)c1 [Cmpd 34, (E,Z)-3-(5-((5-Oxo-2-thioxoimidazolidin-4-ylidene)methyl)thiophen-2-yl)benzonitrile] | 9.68 | 97 | 99 | – | – |
| O=C1NC(=S)N/C1=C/c1ccc(-c2ccc(O)cc2)s1 [Cmpd 35, (E,Z)-5-((5-(4-Hydroxyphenyl)thiophen-2-yl)methylene)-2-thioxoimidazolidin-4-one] | 7.72 | 90 | 93 | – | – |
| CNC(=O)c1ccc(-c2ccc(/C=C3/NC(=S)NC3=O)s2)cc1 [Cmpd 38, (E,Z)-N-Methyl-4-(5-((5-oxo-2-thioxoimidazolidin-4-ylidene)methyl)thiophen-2-yl)benzamide] | 4.53 | 49 | 97 | – | – |
| O=C1NC(=S)N/C1=C/c1ccc(-c2ccc(C(=O)NCCO)cc2)s1 [Cmpd 42, (E,Z)-N-(2-Hydroxyethyl)-4-(5-((5-oxo-2-thioxoimidazolidin-4-ylidene)methyl)thiophen-2-yl)benzamide] | 3.64 | 42 | – | – | – |
| O=C1NC(=S)N/C1=C/c1ccc(-c2ccc(C(=O)NCCCO)cc2)s1 [Cmpd 44, (E,Z)-N-(3-Hydroxypropyl)-4-(5-((5-oxo-2-thioxoimidazolidin-4-ylidene)methyl)thiophen-2-yl)benzamide] | 4.35 | 52 | – | – | – |
| O=C1NC(=S)NC1=Cc1ccc(-c2ccc3c(c2)CNC3=O)cc1 [Cmpd 48, (E,Z)-5-(4-((5-Oxo-2-thioxoimidazolidin-4-ylidene)methyl)phenyl)isoindolin-1-one] | 5.55 | 16 | – | – | – |
| CN1Cc2cc(-c3ccc(/C=C4/NC(=S)NC4=O)s3)ccc2C1=O [Cmpd 61, (E,Z)-2-Methyl-5-(5-((5-oxo-2-thioxoimidazolidin-4-ylidene)methyl)thiophen-2-yl)isoindolin-1-one] | – | 83 | 76 | – | – |
| O=C1NC(=S)N/C1=C/c1ccc(-c2ccc3c(c2)CN(CC(O)CO)C3=O)s1 (stereo not drawn) [Cmpd 78, (E,Z)-2-(2,3-Dihydroxypropyl)-5-(5-((5-oxo-2-thioxoimidazolidin-4-ylidene)methyl)thiophen-2-yl)isoindolin-1-one] | 1.26 | 19 | – | – | – |
| CN1CCc2ccc(-c3ccc(/C=C4\NC(=S)NC4=O)s3)cc2C1=O [Cmpd 83, (E,Z)-2-Methyl-7-(5-((5-oxo-2-thioxoimidazolidin-4-ylidene)methyl)thiophen-2-yl)-3,4-dihydroisoquinolin-1(2H)-one] | 4.76 | 91 | – | – | – |
| CN1CCc2cc(-c3ccc(/C=C4\NC(=S)NC4=O)s3)ccc2C1=O [Cmpd 84, (E,Z)-2-Methyl-6-(5-((5-oxo-2-thioxoimidazolidin-4-ylidene)methyl)thiophen-2-yl)-3,4-dihydroisoquinolin-1(2H)-one] | 2.33 | 72 | – | – | – |
